The structures appear in SMILES notation.

In the assay the test system is HSV-1. Kind of assay: HSV-1 replication in infected Vero 76 cells, DNA hybridization capture assay. Format: cell-based, herpes simplex virus 1. The following applies: Human alphaherpesvirus 1; HSV-1 infected Vero 76 cells (MOI=0.001), 40-48 hours incubation, HSV DNA detected by hybridization/chemiluminescence. On the procedure: Vero 76 cells were maintained in MEM with Earle's salts, L-glutamine, 8% FBS (Hyclone, A-1111-L) and 100 units/mL Penicillin-100 μg/mL Streptomycin. For assay conditions, FBS was reduced to 2%. Cells are seeded into 96-well tissue culture plates at a density of 5×10^4 cells/well after being incubated for 45 min at 37° C. in the presence of HSV-1 or HSV-2 (MOI=0.001). Test compounds are added to the wells and the plates are incubated at 37° C. for 40-48 hours. Cell lysates are prepared as follows: media was removed and replaced with 150 μL/well 0.2 N NaOH with 1% igepal CA 630 or NP-40. Plates were incubated up to 14 days at room temperature in a humidified chamber to prevent evaporation.
For the detection probe, a gel-purified, digoxigenin-labeled, 710-bp PCR fragment of the HSV UL-15 sequence was utilized. PCR conditions included 0.5 μM primers, 180 μM dTTP, 20 μM dUTP-digoxigenin (Boehringer Mannheim 1558706), 200 μM each of dATP, dCTP, and dGTP, 1× PCR Buffer II (Perkin Elmer), 2.5 mM MgCl2, 0.025 units/μL of AmpliTaq Gold polymerase (Perkin Elmer), and 5 ng of gel-purified HSV DNA per 100 μL Extension conditions were 10 min at 95° C., followed by 30 cycles of 95° C. for 1 min, 55° C. for 30 sec, and 72° C. for 2 min. The amplification was completed with a 10-min incubation at 72° C. Primers were selected to amplify a 728 bp probe spanning a section of the HSV1 UL15 open reading frame (nucleotides 249-977). Single-stranded transcripts were purified with Promega M13 Wizard kits. The final product was mixed 1:1 with a mixture of 6 M GuSCN, 100 mM EDTA and 200 μg/mL herring sperm DNA and stored at 4° C.
The capture DNA plasmid (HSV UL13 region in pUC) was linearized by cutting with Xba I, denatured for 15 min at 95° C. and diluted immediately into Reacti-Bind DNA Coating Solution (Pierce, 17250, diluted 1:1 with TE buffer, pH 8) at 1 ng/μL. 75 μL/well were added to Corning (#3922 or 9690) white 96-well plates and incubated at room temperature for at least 4 hrs before washing twice with 300 μL/well 0.2×SSC/0.05% Tween-20 (SSC/T buffer). The plates were then incubated overnight at room temperature with 150 μL/well 0.2 N NaOH, 1% IGEPAL and 10 μg/mL herring sperm DNA.
Twenty-seven (27) μL of cell lysate was combined with 45 μL of hybridization solution (final concentration: 3M GuSCN, 50 mM EDTA, 100 μg/ml salmon sperm DNA, 5× Denhardt's solution, 0.25× APE, and 5 ng of the digoxigenin-labeled detection probe). APE is 1.5 M NH4-acetate, 0.15 M NH4H2 phosphate, and 5 mM EDTA adjusted to pH 6.0. Mineral oil (50 μL) was added to prevent evaporation. The hybridization plates were incubated at 95° C. for 10 minutes to denature the DNA, then incubated at 42° C. overnight. The wells were washed 6× with 300 μL/well SSC/T buffer then incubated with 75 μL/well anti-digoxigenin-HRP-conjugated antibody (Boehringer Mannheim 1207733, 1:5000 in TE) for 30 min at room temperature. The wells were washed 6× with 300 μL/well with PBS/0.05% Tween-20 before 75 μL/well SuperSignal LBA substrate (Pierce) was added. The plates were incubated at room temperature for 30 minutes and chemiluminescence was measured in a Wallac Victor reader.
The following results were obtained for HSV-1.
For the compound `COc1ccc(-c2nn3c(NC4CCCC4)ccnc3c2-c2ccnc(NC3CCCC3)n2)cc1` [Example 6, N-Cyclopentyl-3-[2-(cyclopentylamino)pyrimidin-4-yl]-2-(4-methoxyphenyl)pyrazolo[1,5-α]pyrimidin-7-amine], the IC50 was found to be 2400 nM. That is a single-digit micromolar value.

Regarding `COc1ccc(-c2nn3c(NC4CCCC4)ccnc3c2-c2ccnc(NC3CCCC3)c2)cc1` [Example 4, N-Cyclopentyl-3-[2-(cyclopentylamino)-4-pyridinyl]-2-(4-methoxyphenyl)pyrazolo[1,5-α]pyrimidin-7-amine], half-maximal inhibition (IC50) required 600 nM.

Turning to `c1ccc(-c2nn3c(N4CCCC4)ccnc3c2-c2ccnc(NC3CCCC3)c2)cc1` [Example 2, N-Cyclopentyl-4(2-phenyl-7-pyrrolidin-1-ylpyrazolo[1,5-α]pyrimidin-3-yl)pyridin-2-amine], the IC50 was determined as 800 nM. This IC50 and that of the compound before are within 1.5-fold of each other.

For the compound `Fc1ccc(-c2nn3c(NC4CCCC4)ccnc3c2-c2ccnc(NC3CCCC3)c2)cc1` [Example 5, N-Cyclopentyl-3-[2-(cyclopentylamino)-4-pyridinyl]-2-(4-fluorophenyl)pyrazolo[1,5-α]pyrimidin-7-amine], inhibition was half-maximal at 1200 nM (IC50).

On to `Fc1cc(-c2c(-c3ccccc3)nn3c(N4CCCC4)ccnc23)ccn1` [Example 1, 3-(2-Fluoropyridin-4-yl)-2-phenyl-7-pyrrolidin-1-ylpyrazolo[1,5-α]pyrimidine], for which the IC50 stood at 28000 nM. This IC50 lies about 23-fold higher than the previous one.

`c1ccc(-c2nn3c(NC4CCCC4)ccnc3c2-c2ccnc(NC3CCCC3)c2)cc1` [Example 3, N-Cyclopentyl-3-[2-(cyclopentylamino)pyridin-4-yl]-2-phenylpyrazolo[1,5-α]pyrimidin-7-amine] gave an IC50 of 300 nM.

For the origin of these results see US7304068B2, “Substituted pyrazolo [1,5-A] pyrimidinyls and pharmaceutical uses therefore” (SmithKline Beecham Corporation, priority 2002, dated 2007).
